Measured values taken from article PMC4213378, “Pharmacokinetics and Efficacy of the Spleen Tyrosine Kinase Inhibitor R406 after Ocular Delivery for Retinoblastoma” (Pharmaceutical Research, 2014).

Legend:
RB355 cells = test: Activated caspase 3 immunostaining of RB355 cells; type: cell-based
[1] = tested on: SJ-39 retinoblastoma cells; test: Efficacy in human orthotopic xenograft mouse model of retinoblastoma (event-free survival); type: in vivo
Method: Preclinical testing was carried out in human orthotopic xenograft mice using the methods previously described ([10], [11]). SJ-39 retinoblastoma cells were injected into the vitreous of 30 immunocompromised mice (J:NU, The Jackson Laboratory (Bar Harbor, ME, USA)): 10 were untreated and 20 received subconjunctival injections of R406 in solution formulation (R406^oc) and systemic topotecan (TPT^syst) combination therapy administered over a 5-day course every third week as follows: 10 μL R406 per eye at a concentration of […] (8–9 nanomoles/eye) on day 1, and TPT^syst (0.7 mg/kg per dose, i.p.) on days 1 to 5 (see Fig. 1a). Mice were scheduled to receive six courses of therapy (18 weeks total). Before each course of therapy, mice were examined and intraocular pressure (IOP) was read as previously described ([10], [11]). If intraocular pressure was elevated above normal (IOP > 20) or eye rupture was observed, mice were taken off study and time to event was recorded. At the completion of the study event-free survival (EFS) was analyzed for the R406^oc/TPT^syst treated and untreated groups.
Since R406 is the SYK inhibitor farthest along in clinical development (Phase 3), and therefore the most likely compound to be tested clinically against retinoblastoma, we decided to focus upon its evaluation. In order to test the efficacy of R406 in vivo, we developed a solution formulation using FDA approved adjuvants for ophthalmic applications ([11]). The maximum concentration of R406 in solution was approximately 900 μM and R406 was chemically stable in formulation for 48 h at room temperature (Table S3 and Fig. S2). Next, we performed in vivo efficacy studies using the solution formulation of R406 in combination with systemic topotecan (standard for our preclinical evaluation of new retinoblastoma agents ([11]) following a clinically relevant dose and schedule as was previously done for nutlin-3a and BAY-61-3606 ([6], [11]). SJ-39 retinoblastoma cells were injected into the vitreous of 30 immunocompromised mice and animals were randomized into two treatment groups: 20 received subconjunctival injections of R406 in solution formulation (R406^oc) and systemic topotecan (TPT^syst) combination therapy administered over a 5-day course every third week (see Fig. 1a) and 10 were untreated. Animals were scheduled to receive 6 courses of treatment (18 weeks total), but no animal completed the entire 6 courses. All animals were taken off study by 63 days due to elevated intraocular pressure (IOP > 20) or eye rupture. Event free survival (EFS) was analyzed for the two groups (Fig. 1b). […]

[2] = tested on: RB355 retinoblastoma cells; test: RB355 cell viability (Cell Titer Glo) after varied exposure durations; type: cell-based
Method: RB355 retinoblastoma cells were maintained in RPMI medium (Lonza RPMI-1640) supplemented with 10% FBS (Equitech-Bio), penicillin, streptomycin, and glutamate (Gibco). BJ cells were grown in EMEM (Lonza) supplemented with 10% FBS, penicillin and streptomycin. 293T cells were grown in DMEM supplemented with 10% FBS, penicillin, streptomycin, and glutamate. Cells were passaged every 3-4 days or when they reached 70%-80% confluence.
RB335 cells were seeded in 6-well dishes. Seeded cells were incubated overnight at 37 °C in a humidified 5% CO2 incubator. Cells were treated with DMSO alone, 1, 2.5, or 5 µM R406 and returned to the incubator. At 0, 6, 12, 18, 24, and 72 h, the drugged media was removed from a subset of samples (n=3 samples per cell line) and replaced with drug-free media, washing out the R406 for the remainder of the 72 h incubation. After 72 hours, cells were suspended and aliquoted into a 96 well plate assaying viability (50 µL of cells per well, each sample assayed in duplicate and averaged). Plates were equilibrated at room temperature for 20 min before addition of 50 μL Cell Titer Glo (Promega) to each well. Plates were shaken on an orbital shaker for 2 min at 500 rpm. Luminescence was read after 15 min on an Envision plate reader (Perkin Elmer). Dissociated cells were also stained for caspase and EdU. […]

COc1cc(Nc2ncc(F)c(Nc3ccc4c(n3)NC(=O)C(C)(C)O4)n2)cc(OC)c1OC [R406]
caspase 3+ activation compared to untreated or DMSO treated cells (RB355 cells; 1 μM R406, any exposure time up to 48 h): did not show any increase in caspase 3+ activation
proportion of activated caspase 3+ cells (RB355 cells; 2.5 and 5 μM R406, 0-72 h exposure): increased with increasing exposure duration
minimal exposure required to kill retinoblastoma cells in culture (RB355 cells; for at least 12 h): > 1 µM
proportion of event free survivals at 21 days ([1]; subconjunctival R406 solution 8–9 nmol/eye day 1 + systemic topotecan 0.7 mg/kg i.p. days 1-5, every third week, n=20, untreated 50%): 90%
time by which all animals were taken off study (IOP > 20 or eye rupture) ([1]; subconjunctival R406 solution + systemic topotecan): ≤ 63 days
proportion of event free survivals at 42 days ([1]; subconjunctival R406 solution + systemic topotecan, untreated 0%): 30%
Median event free survival ([1]; subconjunctival R406 solution + systemic topotecan, untreated 32.5 days, log-rank p = 0.005): 42 days
cytotoxicity ([2]; 1 μM R406, 48 – 72 h exposure, read-out: drop in viability compared to DMSO treated controls): ~20%
reduction in viability compared to DMSO treated controls ([2]; 1 μM R406, up to 24 h exposure): no reduction in cell viability
